According to US20240116985A1, “STAPLED PEPTIDES AND METHODS THEREOF” (priority 2020, published 2024):
Like-named read-outs stand apart in the source and are kept apart here.

How the values were obtained:
[1] = biological target: T1, full-length beta-Catenin (Uniprot ID P35222) (Homo sapiens, UniProt P35222); test: Fluorescence polarization IC50 (beta-catenin / 5FAM-TCF4 10-53 competition); format: binding; conditions: fluorescence polarization; read-out: beta-Catenin FP IC50
T1 construct: 10 nM full-length beta-Catenin (Uniprot ID P35222)
T1 sequence (P35222 1-781): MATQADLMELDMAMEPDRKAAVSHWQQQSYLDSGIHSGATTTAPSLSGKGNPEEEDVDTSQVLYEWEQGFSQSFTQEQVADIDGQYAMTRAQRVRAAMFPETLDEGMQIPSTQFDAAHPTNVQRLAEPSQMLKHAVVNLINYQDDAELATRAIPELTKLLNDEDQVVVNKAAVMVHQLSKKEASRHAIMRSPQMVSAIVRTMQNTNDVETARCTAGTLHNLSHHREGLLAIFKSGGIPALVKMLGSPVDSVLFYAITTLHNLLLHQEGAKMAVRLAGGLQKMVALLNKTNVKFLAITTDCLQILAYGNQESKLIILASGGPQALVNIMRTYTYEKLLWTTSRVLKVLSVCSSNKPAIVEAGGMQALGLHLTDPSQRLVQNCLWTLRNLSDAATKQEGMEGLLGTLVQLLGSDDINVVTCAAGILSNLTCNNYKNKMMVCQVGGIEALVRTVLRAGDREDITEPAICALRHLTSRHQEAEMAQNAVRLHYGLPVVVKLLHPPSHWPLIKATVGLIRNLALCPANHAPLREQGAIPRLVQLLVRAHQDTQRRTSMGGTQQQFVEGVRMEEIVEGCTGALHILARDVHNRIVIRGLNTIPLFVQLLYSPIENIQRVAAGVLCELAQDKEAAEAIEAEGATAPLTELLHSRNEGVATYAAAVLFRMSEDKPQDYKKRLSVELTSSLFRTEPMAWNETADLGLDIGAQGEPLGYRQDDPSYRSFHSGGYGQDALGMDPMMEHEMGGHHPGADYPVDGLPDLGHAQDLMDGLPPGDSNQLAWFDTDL

[2] = biological target: T2, beta-catenin/TCF4 engagement (Homo sapiens, UniProt P35222); test: Nano-BRET target engagement assay (B-cat-Halo & TCF4-Luc in HEK293 cells); format: cell-based; conditions: read-out: NanoBRET Abs IC50
T2 construct: expressed in transfected cells; host or cells: HEK293
T2 sequence (P35222 1-781): T1 sequence (P35222 1-781)

Compound	IC50 [1] [µM]	IC50 ([2]; absolute IC50) [µM]	IC50 [2] [µM]
CC(=O)N1CCC[C@]12CC=CCCCC1(CCCC=CCCCOC(=O)N3CC[C@@](C(=O)N[C@@H](Cc4ccsc4)C(=O)N[C@@H](Cc4c[nH]c5ccccc45)C(=O)N[C@@H](CO)C(N)=O)(C3)NC(=O)[C@H](CC(C)C)NC(=O)[C@H](Cc3ccccc3)NC(=O)[C@H](C)NC(=O)[C@H](C)NC(=O)[C@H](CC(=O)O)NC(=O)[C@H](CC(=O)O)NC1=O)NC(=O)[C@H](CC(C)(C)C)NC(=O)[C@H](CC(=O)O)NC2=O (stereo partly drawn) [I-1432, Ac-PL3-Asp-Npg-B5-Asp-Asp-Ala-Ala-Phe-Leu-PyrS2-3Thi-Trp-Ser-NH2]	0.027	14.5	
CC(=O)N1CCC[C@]12CC=CCCCC1(CCCC=CCCCOC(=O)N3CC[C@@](C(=O)N[C@@H](Cc4ccsc4)C(=O)N[C@@H](Cc4csc5ccccc45)C(=O)N[C@@H](CC(N)=O)C(N)=O)(C3)NC(=O)[C@H](CO)NC(=O)[C@H](Cc3ccccc3)NC(=O)[C@H](C)NC(=O)[C@H](C)NC(=O)[C@H](Cc3cccc(C(=O)O)c3)NC(=O)[C@H](CC(=O)O)NC1=O)NC(=O)[C@H](CC(C)(C)C)NC(=O)[C@H](CC(=O)O)NC2=O (stereo partly drawn) [I-2045, Ac-PL3-Asp-Npg-B5-Asp-3COOHF-Ala-Ala-Phe-Ser-PyrS2-3Thi-BztA-Asn-NH2]	0.005		13.5
CC(=O)N1CCC[C@]12CC=CCCCC1(CCCC=CCCCOC(=O)N3CC[C@@](C(=O)N[C@@H](Cc4ccccc4C(F)(F)F)C(=O)N[C@@H](Cc4csc5ccccc45)C(=O)N[C@@H](CCC(=O)N(C)C)C(N)=O)(C3)NC(=O)[C@H](CCC(=O)N(C)C)NC(=O)[C@H](Cc3ccccc3)NC(=O)[C@H](C)NC(=O)[C@H](C)NC(=O)[C@H](Cc3cccc(C(=O)O)c3)NC(=O)[C@H](CC(=O)O)NC1=O)NC(=O)[C@H](CC(C)(C)C)NC(=O)[C@H](CC(=O)O)NC2=O (stereo partly drawn) [I-2535, Ac-PL3-Asp-Npg-B5-Asp-3COOHF-Ala-Ala-Phe-Me2Gln-PyrS2-2F3MeF-BztA-Me2Gln-NH2]	0.011	3.7	
CC(=O)N1CCC[C@]12CC=CCCCC1(CCCC=CCCCOC(=O)N3CC[C@@](C(=O)N[C@@H](Cc4ccsc4)C(=O)N[C@@H](Cc4csc5ccccc45)C(=O)N[C@@H](CCC(N)=O)C(N)=O)(C3)NC(=O)[C@H](CCO)NC(=O)[C@H](Cc3cccc(C(=O)O)c3)NC(=O)[C@H](C)NC(=O)[C@H](C)NC(=O)[C@H](CCc3ccc(O)cc3)NC(=O)[C@H](CC(=O)O)NC1=O)NC(=O)[C@H](CC(C)(C)C)NC(=O)[C@H](CC(=O)O)NC2=O (stereo partly drawn) [I-2117, Ac-PL3-Asp-Npg-B5-Asp-hTyr-Ala-Ala-3COOHF-Hse-PyrS2-3Thi-BztA-Gln-NH2]	0.019		> 20
CC(=O)N1CCC[C@]12CC=CCCCC1(CCCC=CCCCOC(=O)N3CC[C@@](C(=O)N[C@@H](Cc4ccccc4C(F)(F)F)C(=O)N[C@H](C(=O)N[C@@H](CCC(N)=O)C(N)=O)[C@@H](C)c4csc5ccccc45)(C3)NC(=O)[C@H](CC(C)C)NC(=O)[C@H](Cc3ccccc3)NC(=O)[C@H](C)NC(=O)[C@H](C)NC(=O)[C@H](Cc3cccc(C(=O)O)c3)NC(=O)[C@H](CC(=O)O)NC1=O)NC(=O)[C@H](CC(C)(C)C)NC(=O)[C@H](CC(=O)O)NC2=O (stereo partly drawn) [I-2456, Ac-PL3-Asp-Npg-B5-Asp-3COOHF-Ala-Ala-Phe-Leu-PyrS2-2F3MeF-SbMeBztA-Gln-NH2]	0.049	8.1	
CC(=O)N1CC2CC1C(=O)N[C@@H](CC(=O)O)C(=O)N[C@@H](CC(C)(C)C)C(=O)NC1(CCCCCCCCOC(=O)N3CC[C@@](C(=O)N[C@@H](Cc4ccsc4)C(=O)N[C@@H](Cc4csc5ccccc45)C(=O)N[C@@H](CCC(N)=O)C(N)=O)(C3)NC(=O)[C@H](CC(C)C)NC(=O)[C@H](Cc3ccccc3)NC(=O)[C@H](C)NC(=O)[C@H](C)NC(=O)[C@H](CN(CC(=O)O)CC(F)(F)F)NC(=O)[C@H](CC(=O)O)NC1=O)CCCCCCCC(=O)O2 (stereo partly drawn) [I-2265, Ac-HypEs5-Asp-Npg-B5-Asp-TfeGA-Ala-Ala-Phe-Leu-PyrS2-3Thi-BztA-Gln-NH2]	0.067	> 20	
CC(=O)N1CCC[C@]12CC=CCCCC1(CCCC=CCCCOC(=O)N3CC[C@@](C(=O)N[C@@H](Cc4ccsc4)C(=O)N[C@@H](Cc4csc5ccccc45)C(=O)N[C@@H](CCC(N)=O)C(N)=O)(C3)NC(=O)[C@H](CC(N)=O)NC(=O)[C@H](Cc3ccccc3)NC(=O)[C@H](C)NC(=O)[C@H](C)NC(=O)[C@H](Cc3ccc(-c4nnn[nH]4)cc3)NC(=O)[C@H](CC(=O)O)NC1=O)NC(=O)[C@H](CC(C)(C)C)NC(=O)[C@H](CC(=O)O)NC2=O (stereo partly drawn) [I-1579, Ac-PL3-Asp-Npg-B5-Asp-4TzF-Ala-Ala-Phe-Asn-PyrS2-3Thi-BztA-Gln-NH2]	0.039	> 20	
CC(=O)N1CCC[C@]12CC=CCCCC1(CCCC=CCCCOC(=O)N3CC[C@@](C(=O)N[C@@H](Cc4ccsc4)C(=O)N[C@@H](Cc4csc5ccccc45)C(=O)N[C@@H](CCC(N)=O)C(N)=O)(C3)NC(=O)[C@H](CC(C)C)NC(=O)[C@H](Cc3ccccc3)NC(=O)[C@H](C)NC(=O)[C@H](C)NC(=O)[C@H](CCN(CC(=O)O)C(=O)CCCN(C)C)NC(=O)[C@H](CC(=O)O)NC1=O)NC(=O)[C@H](CC(C)(C)C)NC(=O)[C@H](CC(=O)O)NC2=O (stereo partly drawn) [I-2243, Ac-PL3-Asp-Npg-B5-Asp-[NdiMeButC]GAbu-Ala-Ala-Phe-Leu-PyrS2-3Thi-BztA-Gln-NH2]	0.015	25.2	
CC(=O)N1CCC[C@]12CC=CCCCC1(CCCC=CCCCOC(=O)N3CC[C@@](C(=O)N[C@@H](Cc4ccsc4)C(=O)N[C@@H](Cc4csc5ccccc45)C(=O)N[C@@H](CCC(N)=O)C(N)=O)(C3)NC(=O)[C@H](CC(N)=O)NC(=O)[C@H](Cc3cccc(C(=O)O)c3)NC(=O)[C@H](C)NC(=O)[C@H](C)NC(=O)[C@H](Cc3c[nH]cn3)NC(=O)[C@H](CC(=O)O)NC1=O)NC(=O)[C@H](CC(C)(C)C)NC(=O)[C@H](CC(=O)O)NC2=O (stereo partly drawn) [I-2119, Ac-PL3-Asp-Npg-B5-Asp-His-Ala-Ala-3COOHF-Asn-PyrS2-3Thi-BztA-Gln-NH2]	0.029		> 20
CC(=O)N1CCC[C@]12CC=CCCCC1(CCCC=CCCCOC(=O)N3CC[C@@](C(=O)N[C@@H](Cc4ccsc4)C(=O)N[C@@H](Cc4csc5ccccc45)C(=O)N[C@@H](C)C(N)=O)(C3)NC(=O)[C@H](CC(C)C)NC(=O)[C@H](Cc3ccccc3)NC(=O)[C@@H](C)NC(=O)[C@H](C)NC(=O)[C@H](Cc3cccc(C(=O)O)c3)NC(=O)[C@H](CC(=O)O)NC1=O)NC(=O)[C@H](CC(C)(C)C)NC(=O)[C@H](CC(=O)O)NC2=O (stereo partly drawn) [I-2097, Ac-PL3-Asp-Npg-B5-Asp-3COOHF-Ala-dAla-Phe-Leu-PyrS2-3Thi-BztA-Ala-NH2]	0.023		22.3
CC(=O)N1CCC[C@]12CC=CCCCC1(CCCC=CCCCOC(=O)N3CC[C@@](C(=O)N[C@@H](Cc4ccccc4)C(=O)N[C@@H](Cc4csc5ccccc45)C(=O)N[C@@H](CCC(N)=O)C(N)=O)(C3)NC(=O)[C@H](CC(C)C)NC(=O)[C@H](Cc3ccccc3)NC(=O)[C@H](C)NC(=O)[C@H](CCCCNC(C)C)NC(=O)[C@H](CCC(N)=O)NC(=O)[C@H](CC(=O)O)NC1=O)NC(=O)[C@H](CC1CCCCC1)NC(=O)[C@H](CC(N)=O)NC2=O (stereo partly drawn) [I-1648, Ac-PL3-Asn-Cha-B5-Asp-Gln-iPrLys-Ala-Phe-Leu-PyrS2-Phe-BztA-Gln-NH2]	0.191	> 20	
CC(=O)N1CCC[C@]12CC=CCCCC1(CCCC=CCCCOC(=O)N3CC[C@@](C(=O)N[C@@H](Cc4ccsc4)C(=O)N[C@@H](Cc4csc5ccccc45)C(=O)N[C@@H](CCC(N)=O)C(N)=O)(C3)NC(=O)[C@H](CC(C)C)NC(=O)[C@H](Cc3ccccc3)NC(=O)[C@H](C)NC(=O)[C@H](C)NC(=O)[C@H](CN(CC(=O)O)C(=O)CCN(C)C)NC(=O)[C@H](CC(=O)O)NC1=O)NC(=O)[C@H](CC(C)(C)C)NC(=O)[C@H](CC(=O)O)NC2=O (stereo partly drawn) [I-2234, Ac-PL3-Asp-Npg-B5-Asp-[Me2NPr]GA-Ala-Ala-Phe-Leu-PyrS2-3Thi-BztA-Gln-NH2]	0.022	> 20	
CC(=O)N1CCC[C@]12CC=CCCCC1(CCCC=CCCCOC(=O)N3CC[C@@](C(=O)N[C@@H](Cc4ccsc4)C(=O)N[C@@H](Cc4csc5ccccc45)C(=O)N[C@@H](CCC(N)=O)C(N)=O)(C3)NC(=O)[C@H](CCO)NC(=O)[C@H](Cc3ccccc3)NC(=O)[C@H](C)NC(=O)[C@H](C)NC(=O)[C@H](Cc3c[nH]cn3)NC(=O)[C@H](CC(=O)O)NC1=O)NC(=O)[C@H](CC(C)(C)C)NC(=O)[C@H](CC(=O)O)NC2=O (stereo partly drawn) [I-1793, Ac-PL3-Asp-Npg-B5-Asp-His-Ala-Ala-Phe-Hse-PyrS2-3Thi-BztA-Gln-NH2]	0.02	> 20	
